Measured values: ChEMBL document CHEMBL4837220, “Development of tricyclic N-benzyl-4-hydroxybutanamide derivatives as inhibitors of GABA transporters mGAT1-4 with anticonvulsant, antinociceptive, and antidepressant activity” (Eur J Med Chem, 2021)
Activity calls are given as the source filed them.

How the values were obtained:
[1] = molecular target: T1, Sodium- and chloride-dependent GABA transporter 1 (Mus musculus, UniProt P31648); test: Inhibition of mouse GAT1 expressed in human HEK293 cell line assessed as inhibition of [3H]GABA uptake measured after 40 mins by […]; format: cell-based
[2] = molecular target: Sodium- and chloride-dependent GABA transporter 1 (Mus musculus) (UniProt P31648); test: Residual NO711 binding to mouse GAT1 expressed in human HEK293 cell line at 100 uM by MS binding assay relative to control
[3] = molecular target: T2, GABA transporter 4 (Mus musculus, UniProt P31650); test: Inhibition of mouse GAT4 expressed in human HEK293 cell line assessed as inhibition of [3H]GABA uptake measured after 40 mins by […]; format: cell-based
T2 sequence (P31650 whole entry): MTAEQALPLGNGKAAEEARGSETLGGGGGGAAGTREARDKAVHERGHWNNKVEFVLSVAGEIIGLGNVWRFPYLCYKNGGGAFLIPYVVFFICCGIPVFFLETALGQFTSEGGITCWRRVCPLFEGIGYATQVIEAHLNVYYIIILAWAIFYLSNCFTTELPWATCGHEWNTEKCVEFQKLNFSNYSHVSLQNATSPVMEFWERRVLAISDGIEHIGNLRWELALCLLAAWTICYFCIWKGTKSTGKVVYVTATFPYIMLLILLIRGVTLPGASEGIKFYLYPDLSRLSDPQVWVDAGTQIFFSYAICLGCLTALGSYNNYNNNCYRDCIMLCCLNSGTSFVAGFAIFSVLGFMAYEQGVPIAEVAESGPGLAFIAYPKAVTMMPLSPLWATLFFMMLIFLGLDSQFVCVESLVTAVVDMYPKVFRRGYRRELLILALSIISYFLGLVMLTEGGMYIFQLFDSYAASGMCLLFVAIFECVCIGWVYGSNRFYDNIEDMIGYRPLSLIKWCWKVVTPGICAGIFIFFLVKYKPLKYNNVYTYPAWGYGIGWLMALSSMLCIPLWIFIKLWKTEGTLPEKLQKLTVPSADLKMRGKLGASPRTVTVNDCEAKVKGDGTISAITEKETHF

[4] = molecular target: T3, GABA transporter 2 (Mus musculus) (UniProt P31651); test: Inhibition of mouse GAT2 expressed in human HEK293 cell line assessed as residual [3H]GABA uptake at 100 uM measured after 40 mins by […]
T3 sequence (whole entry): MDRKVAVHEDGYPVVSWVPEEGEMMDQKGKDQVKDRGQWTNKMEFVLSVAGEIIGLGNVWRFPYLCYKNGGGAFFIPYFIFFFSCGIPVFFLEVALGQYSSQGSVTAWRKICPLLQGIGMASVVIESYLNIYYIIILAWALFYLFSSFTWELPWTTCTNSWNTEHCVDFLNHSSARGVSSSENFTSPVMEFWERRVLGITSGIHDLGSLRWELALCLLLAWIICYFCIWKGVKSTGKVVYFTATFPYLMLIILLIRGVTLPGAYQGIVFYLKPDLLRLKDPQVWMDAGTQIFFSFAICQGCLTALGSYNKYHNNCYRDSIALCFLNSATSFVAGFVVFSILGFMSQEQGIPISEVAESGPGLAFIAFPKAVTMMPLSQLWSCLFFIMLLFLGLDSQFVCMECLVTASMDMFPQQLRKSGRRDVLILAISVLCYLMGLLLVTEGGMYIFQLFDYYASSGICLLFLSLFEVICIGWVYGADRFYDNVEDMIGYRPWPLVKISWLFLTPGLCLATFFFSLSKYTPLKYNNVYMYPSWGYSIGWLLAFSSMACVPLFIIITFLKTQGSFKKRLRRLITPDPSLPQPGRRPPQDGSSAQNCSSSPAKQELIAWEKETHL

[5] = molecular target: T4, GABA transporter 2 (Mus musculus, UniProt P31651); test: Inhibition of mouse GAT2 expressed in human HEK293 cell line assessed as inhibition of [3H]GABA uptake measured after 40 mins by […]; format: cell-based
T4 sequence (P31651 whole entry): T3 sequence (whole entry)

[6] = molecular target: T1, Sodium- and chloride-dependent GABA transporter 1; test: Inhibition of NO711 binding to mouse GAT1 expressed in human HEK293 cell line by MS binding assay
[7] = molecular target: GABA transporter 3 (Mus musculus, Slc6a13); test: Inhibition of mouse GAT3 expressed in human HEK293 cell line assessed as inhibition of [3H]GABA uptake measured after 40 mins by […]
[8] = system: Mus musculus; test: Anticonvulsant activity in CD-1 mouse assessed as elevation of seizure threshold at 10 mg/kg, ip measured by electroconvulsive threshold test relative to control; format: functional, organism-based

SMILES | IC50 [1] [µM] | residual activity [2] [%] | IC50 [3] [µM] | residual activity [4] [%] | IC50 [5] [µM] | pKi [6] | pIC50 [7] | Activity [8]
O=C(O)C1CCCN(CCC=C2c3ccccc3CCc3ccccc32)C1 (centres undefined) | 13.5 | – | – | – | – | – | – | –
COc1ccc(C(OCCN2CCC[C@H](C(=O)O)C2)(c2ccc(OC)cc2)c2ccc(-c3ccc(C=O)cc3)cc2)cc1 | 72.4 | 77 | 1.29 | 73 | – | – | – | –
CC(=O)NCCC(C(=O)NCc1ccc(C)cc1)N(C)CCC=C1c2ccccc2CCc2ccccc21 (centres undefined) | 13.8 | 69 | 13.5 | – | 15.5 | – | – | –
CC(=O)NCCC(C(=O)NCc1ccccc1Cl)N(C)CCC=C1c2ccccc2CCc2ccccc21 (centres undefined) | 28.8 | 87 | 18.6 | – | 26.3 | – | – | –
CN(CCC=C1c2ccccc2C=Cc2ccccc21)C(CCO)C(=O)NCc1ccc(F)cc1 (centres undefined) | 21.9 | 71 | 13.5 | – | 10.2 | – | – | –
Cc1ccc(CNC(=O)C(CCN)N(C)CCC=C2c3ccccc3CCc3ccccc32)cc1 (centres undefined) | 7.24 | – | 6.46 | – | 11.2 | 5.14 | – | –
O=C(O)C1=CCCN(CCO/N=C/c2ccccc2-c2ccc(Cl)cc2Cl)C1 | – | – | – | – | 49 | 8.29 | 4.35 | inactive
CN(CCC=C1c2ccccc2CCc2ccccc21)C(CCN)C(=O)NCc1ccc(Cl)cc1 (centres undefined) | 6.31 | – | 5.62 | – | 11 | 4.6 | – | –
O=C(O)[C@@H]1CCCN(CCC=C2c3ccccc3-c3ccccc32)C1 | 2 | – | – | – | – | – | – | –
CC(=O)NCCC(C(=O)NCc1ccc(F)cc1)N(C)CCC=C1c2ccccc2CCc2ccccc21 (centres undefined) | 13.8 | 71 | 11.2 | – | 19.5 | – | – | –
CN(CCC=C1c2ccccc2CCc2ccccc21)C(CCN)C(=O)NCc1ccc(F)cc1 (centres undefined) | 6.31 | – | 4.37 | – | 11.7 | 4.96 | – | –
CN(CCC=C(c1ccccc1)c1ccccc1)C(CCN)C(=O)NCc1ccccc1Cl (centres undefined) | – | – | – | – | – | 4.96 | – | –
CC(=O)NCCC(C(=O)NCc1ccc(Cl)cc1)N(C)CCC=C1c2ccccc2CCc2ccccc21 (centres undefined) | 28.2 | 90 | 12.6 | – | 47.9 | – | – | –
Cc1ccc(CNC(=O)C(CCO)N(C)CCC=C2c3ccccc3C=Cc3ccccc32)cc1 (centres undefined) | 27.5 | 55 | 9.12 | – | 9.77 | – | – | –
CN(CCC=C(c1ccccc1)c1ccccc1)C(CCO)C(=O)NCc1ccccc1Cl (centres undefined) | – | 54 | 10 | – | 12.6 | – | 5.14 | –
CN(CCC=C1c2ccccc2CCc2ccccc21)C(CCN)C(=O)NCc1ccccc1Cl (centres undefined) | 6.61 | – | 4.9 | – | 13.5 | 4.87 | – | –
CN(CCC=C1c2ccccc2CCc2ccccc21)C(CCO)C(=O)NCc1ccc(F)cc1 (centres undefined) | 21.9 | 81 | 13.2 | – | 5.75 | – | – | –
CC(=O)NCCC(C(=O)NCc1ccccc1Cl)N(C)CCC=C(c1sccc1C)c1sccc1C (centres undefined) | – | – | – | – | 4.47 | – | 5.61 | –
CN(CCC=C1c2ccccc2CCc2ccccc21)C(CCO)C(=O)NCc1ccc(Cl)cc1 (centres undefined) | 10 | 79 | 15.8 | – | 7.76 | – | – | –
CN(CCC=C1c2ccccc2C=Cc2ccccc21)C(CCO)C(=O)NCc1ccc(Cl)cc1 (centres undefined) | 69.2 | 63 | 15.8 | – | 14.5 | – | – | –

The next lines start with results.

IC50 [1] [µM] | residual activity [2] [%] | IC50 [3] [µM] | residual activity [4] [%] | IC50 [5] [µM] | pKi [6] | pIC50 [7] | SMILES | Activity [8]
31.6 | 99 | 30.9 | – | 30.2 | – | – | Cc1ccc(CNC(=O)C(CCO)N(C)CCC=C2c3ccccc3-c3ccccc32)cc1 (centres undefined) | –
20.9 | 69 | 9.55 | – | 6.76 | – | – | CN(CCC=C1c2ccccc2C=Cc2ccccc21)C(CCO)C(=O)NCc1ccccc1Cl (centres undefined) | –
20 | 51 | 17 | – | 9.12 | – | – | CN(CCC=C1c2ccccc2CCc2ccccc21)C(CCO)C(=O)NCc1ccccc1 (centres undefined) | –
33.1 | 93 | 26.9 | – | 25.7 | – | – | CN(CCC=C1c2ccccc2-c2ccccc21)C(CCO)C(=O)NCc1ccccc1Cl (centres undefined) | –
37.2 | 90 | 35.5 | – | 25.7 | – | – | CN(CCC=C1c2ccccc2-c2ccccc21)C(CCO)C(=O)NCc1ccc(F)cc1 (centres undefined) | –
24 | 75 | 25.1 | – | 17.8 | – | – | CN(CCC=C1c2ccccc2-c2ccccc21)C(CCO)C(=O)NCc1ccccc1 (centres undefined) | –
8.13 | – | 4.68 | – | 9.55 | 4.78 | – | CN(CCC=C1c2ccccc2CCc2ccccc21)C(CCN)C(=O)NCc1ccccc1 (centres undefined) | –
28.8 | 77 | 17.8 | – | 37.2 | – | – | CC(=O)NCCC(C(=O)NCc1ccccc1)N(C)CCC=C1c2ccccc2CCc2ccccc21 (centres undefined) | –
42.7 | 91 | 44.7 | – | 32.4 | – | – | CN(CCC=C1c2ccccc2-c2ccccc21)C(CCO)C(=O)NCc1ccc(Cl)cc1 (centres undefined) | –
25.1 | 82 | 15.8 | – | 11 | – | – | CN(CCC=C1c2ccccc2CCc2ccccc21)C(CCO)C(=O)NCc1ccccc1Cl (centres undefined) | –
